Data set [1] has as its target T1, Human COX-2 (Homo sapiens, UniProt P35354).
T1 construct: A 2.0 kb fragment containing the coding region of either human or murine COX-1 or human or murine COX-2; made in house; host or cells: SF9 insect cells (baculovirus, transfer vector pVL1393)
T1 sequence (P35354 18-604): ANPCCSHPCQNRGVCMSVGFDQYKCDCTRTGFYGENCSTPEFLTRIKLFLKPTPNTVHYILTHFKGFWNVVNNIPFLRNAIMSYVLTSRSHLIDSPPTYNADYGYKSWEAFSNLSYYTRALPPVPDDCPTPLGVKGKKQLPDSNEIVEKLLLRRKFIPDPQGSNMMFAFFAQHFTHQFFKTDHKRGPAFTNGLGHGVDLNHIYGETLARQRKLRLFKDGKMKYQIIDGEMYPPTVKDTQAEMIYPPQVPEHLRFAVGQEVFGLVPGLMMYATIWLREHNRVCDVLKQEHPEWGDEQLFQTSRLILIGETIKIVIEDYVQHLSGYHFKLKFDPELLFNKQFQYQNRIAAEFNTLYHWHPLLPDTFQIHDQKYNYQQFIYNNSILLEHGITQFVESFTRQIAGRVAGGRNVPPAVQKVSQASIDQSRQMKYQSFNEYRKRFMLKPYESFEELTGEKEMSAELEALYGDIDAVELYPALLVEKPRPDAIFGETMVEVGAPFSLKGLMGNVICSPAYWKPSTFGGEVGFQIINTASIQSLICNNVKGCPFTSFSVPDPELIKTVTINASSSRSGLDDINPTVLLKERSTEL
The experiment in a line: Assay for COX-1 and COX-2 activity (PGE2 ELISA, recombinant enzyme), COX-2. The format is biochemical. The following applies: Table I; pre-incubated 10-20 minutes, arachidonic acid 10 μM, stopped after ten minutes, pH 8.0. Here is the method: The COX-2 inhibition activity of the compounds of this invention illustrated in the Examples was determined by the following methods.
(§1) Recombinant COX-1 and COX-2 were prepared as described by Gierse et al, [J. Biochem., 305, 479-84 (1995)]. A 2.0 kb fragment containing the coding region of either human or murine COX-1 or human or murine COX-2 was cloned into a BamH1 site of the baculovirus transfer vector pVL1393 (Invitrogen) to generate the baculovirus transfer vectors for COX-1 and COX-2 in a manner similar to the method of D. R. O'Reilly et al (Baculovirus Expression Vectors: A Laboratory Manual (1992)). Recombinant baculoviruses were isolated by transfecting 4 μg of baculovirus transfer vector DNA into SF9 insect cells (2×10^8) along with 200 ng of linearized baculovirus plasmid DNA by the calcium phosphate method. See M. D. Summers and G. E. Smith, A Manual of Methods for Baculovirus Vectors and Insect Cell Culture Procedures, Texas Agric. Exp. Station Bull. 1555 (1987). Recombinant viruses were purified by three rounds of plaque purification and high titer (10^7-10^8 pfu/mL) stocks of virus were prepared. For large scale production, SF9 insect cells were infected in 10 liter fermentors (0.5×10^6/mL) with the recombinant baculovirus stock such that the multiplicity of infection was 0.1. After 72 hours the cells were centrifuged and the cell pellet homogenized in Tris/Sucrose (50 mM: 25%, pH 8.0) containing 1% 3-[(3-cholamidopropyl)dimethylammonio]-1-propanesulfonate (CHAPS). The homogenate was centrifuged at 10,000×G for 30 minutes, and the resultant supernatant was stored at −80° C. before being assayed for COX activity.
COX activity was assayed as PGE2 formed/μg protein/time using an ELISA to detect the prostaglandin released. CHAPS-solubilized insect cell membranes containing the appropriate COX enzyme were incubated in a potassium phosphate buffer (50 mM, pH 8.0) containing epinephrine, phenol, and heme with the addition of arachidonic acid (10 μM). Compounds were pre-incubated with the enzyme for 10-20 minutes prior to the addition of arachidonic acid. Any reaction between the arachidonic acid and the enzyme was stopped after ten minutes at 37° C./room temperature by transferring 40 μl of reaction mix into […] and 25 μM indomethacin. The PGE2 formed was measured by standard ELISA technology (Cayman Chemical).

Data set [2] deals with T2, Human COX-1 (Homo sapiens, UniProt P23219).
T2 construct: A 2.0 kb fragment containing the coding region of either human or murine COX-1 or human or murine COX-2; made in house; host or cells: SF9 insect cells (baculovirus, transfer vector pVL1393)
T2 sequence (P23219 24-599): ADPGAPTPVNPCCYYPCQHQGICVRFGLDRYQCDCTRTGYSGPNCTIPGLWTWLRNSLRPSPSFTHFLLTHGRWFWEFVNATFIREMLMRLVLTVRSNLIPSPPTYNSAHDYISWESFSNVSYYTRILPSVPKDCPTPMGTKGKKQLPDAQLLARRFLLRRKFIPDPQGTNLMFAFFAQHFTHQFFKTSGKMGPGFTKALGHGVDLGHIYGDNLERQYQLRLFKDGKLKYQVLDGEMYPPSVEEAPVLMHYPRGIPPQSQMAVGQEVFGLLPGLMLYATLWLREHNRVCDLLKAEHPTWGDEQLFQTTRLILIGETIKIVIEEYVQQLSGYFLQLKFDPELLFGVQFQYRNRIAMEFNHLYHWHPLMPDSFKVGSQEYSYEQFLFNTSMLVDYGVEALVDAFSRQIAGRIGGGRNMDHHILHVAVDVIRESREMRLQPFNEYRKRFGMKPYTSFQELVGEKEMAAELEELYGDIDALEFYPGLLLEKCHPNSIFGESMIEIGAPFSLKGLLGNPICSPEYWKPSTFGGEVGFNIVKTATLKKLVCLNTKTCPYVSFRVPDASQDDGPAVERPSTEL
As to the kind of experiment: Assay for COX-1 and COX-2 activity (PGE2 ELISA, recombinant enzyme), COX-1. Type of data set: biochemical. The following applies: Table I; pre-incubated 10-20 minutes, arachidonic acid 10 μM, stopped after ten minutes, pH 8.0. The method, then: as §1, with “Recombinant” for “Recombinant COX-1 and COX-2 were prepared as described by Gierse et al, [J. Biochem., 305, 479-84 (1995)]. A 2.0 kb fragment containing the coding region of either human or murine COX-1 or human or murine COX-2 was cloned into a BamH1 site of the baculovirus transfer vector pVL1393 (Invitrogen) to generate the baculovirus transfer vectors for COX-1 and COX-2 in a manner similar to the method of D. R. O'Reilly et al (Baculovirus Expression Vectors: A Laboratory Manual (1992)). Recombinant”, “1555 (1987).” left out
COX activity was assayed as PGE2 formed/μg protein/time using an ELISA to detect the prostaglandin released. CHAPS-solubilized insect cell membranes containing the appropriate COX enzyme were incubated in a potassium phosphate buffer (50 mM, pH 8.0) containing epinephrine, phenol, and heme with the addition of arachidonic acid (10 μM). Compounds were pre-incubated with the enzyme for 10-20 minutes prior to the addition of arachidonic acid. […] The PGE2 formed was measured by standard ELISA technology (Cayman Chemical).

Data set [3] deals with T1, Human COX-2. As to the kind of experiment: Fast assay for COX-1 and COX-2 activity (PGE2 ELISA), COX-2. The format is biochemical. The following applies: Table II, pre-incubated 10 minutes at 25° C., arachidonic acid 10 μM, stopped after two minutes, pH 7.5. The method, then: as §1
COX activity was assayed as PGE2 formed/μg protein/time using an ELISA to detect the prostaglandin released. CHAPS-solubilized insect cell membranes containing the appropriate COX enzyme were incubated in a potassium phosphate buffer (0.05 M Potassium phosphate, pH 7.5, 2 μM phenol, 1 μM heme, 300 μM epinephrine) with the addition of 20 μl of 100 μM arachidonic acid (10 μM). Compounds were pre-incubated with the enzyme for 10 minutes at 25° C. prior to the addition of arachidonic acid. Any reaction between the arachidonic acid and the enzyme was stopped after two minutes at 37° C./room temperature by transferring 40 μl of reaction mix into 160 μl ELISA buffer and 25 μM indomethacin. The PGE2 formed was measured by standard ELISA technology (Cayman Chemical).

In data set [4] the target is T2, Human COX-1. The experiment in a line: Fast assay for COX-1 and COX-2 activity (PGE2 ELISA), COX-1. Type of data set: biochemical. As to conditions: Table II, pre-incubated 10 minutes at 25° C., arachidonic acid 10 μM, stopped after two minutes, pH 7.5. The method, then: as §1, with “Recombinant” for “Recombinant COX-1 and COX-2 were prepared as described by Gierse et al, [J. Biochem., 305, 479-84 (1995)]. A 2.0 kb fragment containing the coding region of either human or murine COX-1 or human or murine COX-2 was cloned into a BamH1 site of the baculovirus transfer vector pVL1393 (Invitrogen) to generate the baculovirus transfer vectors for COX-1 and COX-2 in a manner similar to the method of D. R. O'Reilly et al (Baculovirus Expression Vectors: A Laboratory Manual (1992)). Recombinant”, “1555 (1987).” left out
COX activity was assayed as PGE2 formed/μg protein/time using an ELISA to detect the prostaglandin released. CHAPS-solubilized insect cell membranes containing the appropriate COX enzyme were incubated in a potassium phosphate buffer (0.05 M Potassium phosphate, pH 7.5, 2 μM phenol, 1 μM heme, 300 μM epinephrine) with the addition of 20 μl of 100 μM arachidonic acid (10 μM). Compounds were pre-incubated with the enzyme for 10 minutes at 25° C. prior to the addition of arachidonic acid. […] The PGE2 formed was measured by standard ELISA technology (Cayman Chemical).

pIC50: −log10 of the molar value.

Turning to `NS(=O)(=O)c1ccc(-c2cscc2-c2ccccc2)cc1F` [Example 1, 2-Fluoro-4-(4-phenyl-3-thienyl)benzenesulfonamide], the melting point lay in the range of 170.9 to 171 °C. Further, at Human COX-2 [1], the negative logarithm of the IC50 (pIC50) is 7.96. In addition, the pIC50 on Human COX-1 [2] was 4.42. The pIC50 against Human COX-2 [3] is 7.89. In addition, the pIC50 on Human COX-1 [4] was 4.53.
For `CS(=O)(=O)c1ccc(-c2cscc2-c2ccccc2)cc1F` [Example 2, 3-[3-Fluoro-4-(methylsulfonyl)phenyl]-4-phenylthiophene], the melting point was 140 to 141 °C. Moreover, the pIC50 at Human COX-2 [1] was 7.29. Also, at Human COX-1 [2], the negative logarithm of the IC50 (pIC50) is less than 4.00. In addition, the pIC50 on Human COX-2 [3] is 7.37. Besides, on Human COX-1 [4], the negative logarithm of the IC50 (pIC50) was less than 4.00.
For `Cc1ccc(-c2cc(C(F)F)nn2-c2ccc(S(N)(=O)=O)c(F)c2)cc1Cl` [Example 3, 4-[5-(3-chloro-4-methylphenyl)-3-(difluoromethyl)-1H-pyrazol-1-yl]-2-fluorobenzenesulfonamide], the melting point lay within 160 to 161 °C. Further, the negative logarithm of the IC50 (pIC50) at Human COX-2 [1] was 8.30. Also, the negative-log IC50 (pIC50) on Human COX-1 [2] is 4.79. Also, the pIC50 against Human COX-2 [3] is 8.40. Further, the pIC50 on Human COX-1 [4] was 4.57.
Take `COc1ccccc1-c1cc(C(F)(F)F)nn1-c1ccc(S(N)(=O)=O)c(F)c1` [Example 9, 2-Fluoro-4-[5-(2-methoxyphenyl)-3-(trifluoromethyl)-1H-pyrazol-1-yl]benzenesulfonamide]: the negative logarithm of the IC50 (pIC50) on Human COX-2 [1] is 6.60; on Human COX-1 [2], less than 4.00; on Human COX-2 [3] it was 6.74; on Human COX-1 [4], less than 4.00.
In turn, `CS(=O)(=O)c1ccc(-c2cc(C(F)(F)F)nn2-c2ccc(F)cc2)cc1F` [Example 11, 5-[3-Fluoro-4-(methylsulfonyl)phenyl]-1-(4-fluorophenyl)-3-(trifluoromethyl)-1H-pyrazole] yielded a melting point of 228 to 229 °C. Besides, on Human COX-2 [1], the pIC50 is 6.82. Besides, the pIC50 on Human COX-1 [2] was less than 4.00. Besides, the pIC50 on Human COX-2 [3] is 6.89. The pIC50 on Human COX-1 [4] was 4.65.
Consider `CS(=O)(=O)c1ccc(-c2cc(C(F)(F)F)nn2C2CCCCC2)cc1F` [Example 12, 1-Cyclohexyl-5-[3-fluoro-4-(methylsulfonyl)phenyl]-3-(trifluoromethyl)-1H-pyrazole], for which the melting point fell in the range of 228 to 229 °C. Besides, at Human COX-2 [1], the negative-log IC50 (pIC50) was 6.74. On Human COX-1 [2], the pIC50 is less than 4.00. The pIC50 on Human COX-2 [3] is 6.85. The compound further gave a pIC50 against Human COX-1 [4] of less than 4.00.
In the case of `CS(=O)(=O)c1ccc(-c2cc(C(F)(F)F)nn2-c2cccc(C(F)(F)F)c2)cc1F` [Example 13, 5-[3-Fluoro-4-(methylsulfonyl)phenyl]-3-(trifluoromethyl)-1-[3-(trifluoromethyl)phenyl]-1H-pyrazole], the pIC50 on Human COX-2 [1] is 6.74; at Human COX-1 [2], less than 4.00; at Human COX-2 [3] it was 6.82; at Human COX-1 [4] it was less than 4.00.
`CS(=O)(=O)c1ccc(-c2cc(C(F)(F)F)nn2-c2ccc(OC(F)(F)F)cc2)cc1F` [Example 14, 5-[3-Fluoro-4-(methylsulfonyl)phenyl]-3-(trifluoromethyl)-1-[4-(trifluoromethoxy)phenyl]-1H-pyrazole] yielded a melting point of 110 to 112 °C. At Human COX-2 [1], the negative-log IC50 (pIC50) is 7.21. Moreover, at Human COX-1 [2], the negative logarithm of the IC50 (pIC50) was less than 4.00. Further, the pIC50 against Human COX-2 [3] was 7.19. At Human COX-1 [4], this compound showed a pIC50 of less than 4.00.
Compound `Cc1ccc(-n2nc(C(F)(F)F)cc2-c2ccc(S(C)(=O)=O)c(F)c2)cc1Cl` [Example 15, 1-(3-Chloro-4-methylphenyl)-5-[3-fluoro-4-(methylsulfonyl)phenyl]-3-(trifluoromethyl)-1H-pyrazole] came in with a melting point of 144 to 145 °C. The pIC50 on Human COX-2 [1] was 7.80. For the same compound, the negative logarithm of the IC50 (pIC50) at Human COX-1 [2] was less than 4.00. In addition, at Human COX-2 [3], the negative logarithm of the IC50 (pIC50) is 7.82. This compound also gave a pIC50 against Human COX-1 [4] of 5.63.
Regarding `CS(=O)(=O)c1ccc(-c2cc(C(F)F)nn2-c2ccc(F)cc2)cc1F` [Example 18, 3-(Difluoromethyl)-5-[3-fluoro-4-(methylsulfonyl)phenyl]-1-(4-fluorophenyl)-1H-pyrazole], the pIC50 at Human COX-2 [1] was 6.49; at Human COX-1 [2], less than 4.00; on Human COX-2 [3], 6.51; at Human COX-1 [4] it was less than 4.00.
As for `CS(=O)(=O)c1ccc(-c2cc(C(F)F)nn2C2CCCCC2)cc1F` [Example 19, 1-Cyclohexyl-3-(difluoromethyl)-5-[3-fluoro-4-(methylsulfonyl)phenyl]-1H-pyrazole], the pIC50 was 6.15 at Human COX-2 [1], less than 4.00 at Human COX-1 [2], 6.47 against Human COX-2 [3] and less than 4.00 on Human COX-1 [4].
Turning to `Cc1ccc(-n2nc(C(F)F)cc2-c2ccc(S(C)(=O)=O)c(F)c2)cc1Cl` [Example 20, 1-(3-Chloro-4-methylphenyl)-3-(difluoromethyl)-5-[3-fluoro-4-(methylsulfonyl)phenyl]-1H-pyrazole], the negative-log IC50 (pIC50) is 7.44 at Human COX-2 [1], less than 4.00 at Human COX-1 [2], 7.28 at Human COX-2 [3] and less than 4.00 against Human COX-1 [4].
Consider `CS(=O)(=O)c1ccc(-c2cc(C(F)F)nn2-c2cccc(C(F)(F)F)c2)cc1F` [Example 21], for which the negative-log IC50 (pIC50) is 6.26 on Human COX-2 [1], less than 4.00 on Human COX-1 [2], 6.54 against Human COX-2 [3] and less than 4.00 on Human COX-1 [4].
